Reference: patent publication US6528042B1, “Compositions of flavonoids for use as cytoprotectants and methods of making and using them” (Galileo Laboratories, Inc., priority 1999, dated 2003)

What was measured:
[1] = tested on: Oxidatively competent cells; assay: SYTOX cell death assay in oxidatively competent cells treated with antimycin A; assay type: cell-based; conditions: for cell death when tested individually: highest concentration tested
Method: Oxidatively competent cells are prepared as described in Example 1. and Example 2.A and are seeded onto 96-well plates at 1×10^3/well or 2.5×10^3/well as passage 15. The cells are grown in DMEM with 10% FBS and 1.5 g/L sodium bicarbonate for 24 or 48 hours to reach 85% confluence. The cells are washed once with HBSS and then 100 μl of HBSS containing different concentration of AA (Sigma, Cat #A 8674) is added to the cells. AA is dissolved in DMSO to make a stock solution of 50 mM, then diluted with HBSS to 25, 12.5, 6.25, 3.125, and 1.56 μM for dose-response curves. The cells, with or without AA, are incubated at 37° C. in a 5% CO2 humidified incubator for 1 to 5 hours. The concentration of AA is chosen to induce 75% or 100% cell death as a screening dose to test the effect of agents to protect against AA- induced cell toxicity. The concentration of agents used for screening will be dependent upon the agents. Certain control groups contain 100 μl of HBSS only.
(§1) SYTOX Green nucleic acid stain is a high-affinity nucleic acid stain that easily penetrates cells with a compromised plasma membrane but will not cross the membrane of live cells. The nucleic acids of dead cells fluoresce bright green at 524 nm when excited with the 488 nm spectral source or with any other 450-500 nm source. […] In the cell viability assay chemical ischemia is created in cells and then cells are incubated with the SYTOX dye. The compound antimycin is used to simulate ischemia at the same time as stimulating the cells with forskolin. […] The assay is performed on cells grown in 96-well format allowing high throughput screening of compounds.
(§2) Compound(s) are mixed with the 1 μM SYTOX working solution and added to the washed cell culture wells. Fluorescence is measured at designated time points (488 nm excitation and 530 nm emission). All of the sample readings subtract the background readings, which is cell-free wells only containing HBSS buffer with SYTOX green dye. The data is compared to non-treated cells (control) and is expressed as mean±S.D. from 4 culture wells. SYTOX Green fluorescence units obtained from each group are corrected for basal fluorescence (cell-free wells with only HBSS and fluorescence reagent). Data are represented as mean±SD. A paired t-test is performed comparing treated groups (Toxin+Agent) with non-treated groups (Toxin only) after subtracting the control groups (HBSS only) for each data set. Comparisons among groups are statistically evaluated by two-tailed t-test (Graphpad Prism Software, version 2.0). Differences are considered significant at P<0.05.
Oxidatively competent cells were treated simultaneously with hesperetin, chrysin and 100 nM antimycin A2.C. The cells were treated with various low concentrations of hesperetin and various concentrations of chrysin (Sigma Chemical Co., cat. #C3018). Hesperetin, chrysin and antimycin A were mixed together before treating the cells. Cell viability was measured at time points up to 5 hours using SYTOX, as described in Example 2.F.
In experiments carried out in support of the invention, various concentrations of diosmin and alpha-tocopherol were tested for synergistic ability to ameliorate disruption of energy metabolism secondary to stress. Oxidatively competent cells were treated simultaneously with diosmin, alpha-tocopherol and antimycin A2.C. The cells were treated with various low concentrations of diosmin (Sigma Chemical Co., cat. #D3525) and various low concentrations of (+/−) alpha-tocopherol. Diosmin, alpha-tocopherol and antimycin were mixed together before treating cells. Cell viability was measured 4 hours after treatment using SYTOX. […] Likewise, the combination of disomin (11-100 μM) with 1.1 μg/ml (+/−) alpha tocopherol was synergistic. […] Diosmin alone provided no protection at a concentration of 100 μM. […] A combination of 100 μM diosmin and 11 μg/ml (+/−) alpha tocopherol was also synergistic. […]

GCL1 cells = assay: SYTOX cell death assay in GCL1 cells treated with antimycin A (chemical ischemia); assay type: cell-based, rat hepatoma cells (fao) / human fibroblasts (W138) hybrid; conditions: for reduction in cell death: control 82.9%
From the text: At greater than 80% confluence, more than 80% of the cells participate in forming one or more phaselucent, spherical structures that are located between cells, termed bile canicular-like spaces. In contrast to the majority of cell lines maintained in culture which are fermentative, GCL1 cells, when at their maximal density and polarity, are highly oxidative (i.e., they can be readily killed by inhibitors of oxidative phosphorylation or electron transport uncouplers). […] These cells are amenable to use in high throughput screening (HTS) technology.
The cells, with or without AA, are incubated at 37° C. in a 5% CO2 humidified incubator for 1 to 5 hours. […] The concentration of agents used for screening will be dependent upon the agents. Certain control groups contain 100 μl of HBSS only.
as §1
Aliquot at 100 μl. This 10 mM stock is then diluted to 1 mM with DMSO and aliquoted at 25 μL. Both the 10 mM and the 1 mM are stored at −20° C. until use. […] Aliquot at 100 μl and store at −20° C. until use. iv.) HBSS-SYTOX-FORSKOLIN-ANTIMYCIN (H-S-F-A) solution: H-S-F-A solution is made up fresh prior to each assay in sterile 175 ml or 225 ml Falcon bottles. […]
Cells are grown in 96-well black plates (with or without clear bottoms) at a density of 1000 cells per well for 24 hours. The necessary number of 96-well plates containing the specific cell type are obtained and placed in the laminar flow safety cabinet. A sterile microtiter basin is filled with the appropriate volume of pre-warmed 1×HBSS. Using aseptic technique and an 8-channel aspirator, the media is carefully removed from the cells and replaced with 200 μl of 1×HBSS. This is done as quickly as possible to prevent the cells drying out. The plates are then placed in the humidified 37° C. incubators of the Biomek 2000 Side Loader. Four plates are washed at a time so as to minimize the time that the cells are sitting in 1×HBSS prior to addition of the H-S-A-compound test solution.
as §2
Hesperetin, diosmin, luteolin and quercetin were tested individually for their ability to counteract disruptions of normal energy metabolism. Flavonoids were commercially obtained, generally from Sigma Chemical Co., St. Louis, Mo., and/or Aldrich Chemical Co., Milwaukee, Wis.

[2] = cited from earlier work; for abnormalities observed for a week: administered orally to mice at 100 mg/kg (U.S. Pat. No. 5,650,433)
[3] = flavonoid 25 μM, antimycin A 100 nM, 4 hours
[4] = flavonoid 50 μM, antimycin A 100 nM, 4 hours
[5] = flavonoid 100 μM, antimycin A 100 nM, 4 hours
[6] = flavonoid 200 μM, antimycin A 100 nM, 4 hours
[7] = flavonoid 400 μM, antimycin A 100 nM, 4 hours

Cc1c(C)c2c(c(C)c1O)CCC(C)(CCCC(C)CCCC(C)CCCC(C)C)O2 (racemic) [(+/−) alpha-tocopherol, 2,5,7,8-tetramethyl-2-(4′,8′,12′-trimethyltridecyl)-6-chromanol]
protection ([1]; 10 μg/ml (+/−) alpha-tocopherol by itself): about 15% | cell death when tested individually [1]: over half of the cells died

Cc1c(C)c2c(c(C)c1O)CC[C@@](C)(CCC[C@H](C)CCC[C@H](C)CCCC(C)C)O2 (relative stereo) [alpha-tocopherol, [2R-2R*(4R*,8R*)]-3,4-dihydro-2,5,7,8-tetramethyl-2-(4,8,12-trimethyltridecyl)-2H-1-benzopyran-6-ol]
cell death when tested individually [1]: about half of the cells died

COc1ccc(-c2cc(=O)c3c(O)cc(O[C@@H]4O[C@H](CO[C@@H]5O[C@@H](C)[C@H](O)[C@@H](O)[C@H]5O)[C@@H](O)[C@H](O)[C@H]4O)cc3o2)cc1O [Diosmin, reference compound]
protective effect (GCL1 cells; concentrations less than 400 μM): ineffective | Cell Death (GCL1 cells; [3]): 84.1% ± 1.6 | Cell Death (GCL1 cells; [4]): 84.9% ± 1.6 | Cell Death (GCL1 cells; [5]): 85.3% ± 0.6 | Cell Death (GCL1 cells; [6]): 85.2% ± 2.0 | Cell Death (GCL1 cells; [7]): 82.5% ± 2.6 | protection ([1]; diosmin 3.3-100 μM by itself, 4 hours): not protective by itself | protection ([1]; diosmin alone 100 μM): no protection | protection ([1]; diosmin by itself 33-100 μM): not effective

O=c1cc(-c2ccc(O)c(O)c2)oc2cc(O)cc(O)c12 [Luteolin, 2-(3,4-Dihydroxyphenyl)-5,7-dihydroxy-4H-1-benzopyran-4-one]
cytoprotective activity (GCL1 cells; concentrations of about 60 μM and above): exhibited cytoprotective activity | Cell Death (GCL1 cells; flavonoid 15.6 μM, antimycin A 100 nM, 4 hours): 78.0% ± 0.9 | Cell Death (GCL1 cells; flavonoid 31.25 μM, antimycin A 100 nM, 4 hours): 74.5% ± 1.2 | Cell Death (GCL1 cells; flavonoid 62.5 μM, antimycin A 100 nM, 4 hours): 69.0% ± 2.2 | Cell Death (GCL1 cells; flavonoid 125 μM, antimycin A 100 nM, 4 hours): 53.7% ± 5.4 | Cell Death (GCL1 cells; flavonoid 250 μM, antimycin A 100 nM, 4 hours): 33.4% ± 0.6 | abnormalities observed for a week [2]: the same results were reported

O=c1c(O)c(-c2ccc(O)c(O)c2)oc2cc(O)cc(O)c12 [Quercetin, 2-(3,4-Dihydroxyphenyl)-3,5,7-trihydroxy-4H-1-benzopyran-4-one]
protective activity (GCL1 cells; concentrations of 25 μM and above): protective activity is apparent | Cell Death (GCL1 cells; [3]): 68.1% ± 1.7 | Cell Death (GCL1 cells; [4]): 57.1% ± 2.4 | Cell Death (GCL1 cells; [5]): 22.0% ± 2.2 | Cell Death (GCL1 cells; [6]): 0.0% ± 0.9 | Cell Death (GCL1 cells; [7]): 1.0% ± 0.5

Nc1ncnc2c1ncn2[C@@H]1O[C@H](CO)[C@@H](O)[C@H]1O [adenosine, 9-β-D-ribofuranosyl-9H-purin-6-amine]
protection (GCL1 cells; 11 μM adenosine alone): 17.9%

COc1ccc(-c2coc3cc(O)cc(O)c3c2=O)cc1 [biochanin A, 5,7-dihydroxy-4′-methoxyiso-flavone]
cell death when tested individually [1]: about half of the cells died

C[N+](C)(C)CC(O)CC(=O)[O-].O=C(O)C(O)C(O)C(=O)O (centres unmarked) [carnitine tartate, carnitine tartrate]
Cell Death (GCL1 cells; 10 mM carnitine tartrate alone, 4 hours, control 97.4%): 59.5%

O=c1cc(-c2ccccc2)oc2cc(O)cc(O)c12 [chrysin, 5,7-dihydroxy-2-phenyl-4H-1-benzopyran-4-one]
Cell Death ([1]; 60 μM chrysin alone, control 72.9%): 50.1%

O=c1c(-c2ccc(O)cc2)coc2cc(O)ccc12 [daidzein, 7-hydroxy-3-(4-hydroxyphenyl)-4H-1-benzopyran-4-one]
cell death when tested individually [1]: over half of the cells died

Cc1c(O)cc2c(c1C)O[C@](C)(CCC[C@H](C)CCC[C@H](C)CCCC(C)C)CC2 [gamma-tocopherol, 3,4-dihydro-2,7,8-trimethyl-2-(4,8,12-trimethyltridecyl)-2H-1-benzyopyran-6-ol]
protection ([1]; gamma-tocopherol 0.03-0.3 μg/ml by itself): not protective by itself

NCC(=O)O [glycine, aminoacetic acid]
protection (GCL1 cells; 100 μM glycine alone, 4 hours, control cell death 82.1%): 40.8%

COc1ccc([C@@H]2CC(=O)c3c(O)cc(O[C@@H]4O[C@H](CO[C@@H]5O[C@@H](C)[C@H](O)[C@@H](O)[C@H]5O)[C@@H](O)[C@H](O)[C@H]4O)cc3O2)cc1O [hesperidin, (S)-7-[[6O-(6-Deoxy-α-L-mannopyranosyl)-β-D-glucopyranosyl]oxy]-2,3-dihydro-5-hydroxy-2-(3-hydroxy-4-methoxyphenyl)-4H-1-benzopyran-4-one]
abnormalities observed for a week [2]: the same results were reported | toxicity ([2]; orally administered to a mouse at 1000 mg/kg (U.S. Pat. No. 5,763,414)): no toxicity | effects on liver function ([2]; tests using mice): no adverse effects on liver function | toxicity or mitogenicity ([2]; tests using mice): little toxicity or mitogenicity

O=C(CO)[C@H](O)[C@H](O)CO [ribulose]
reduction in cell death (GCL1 cells; 1.25 mM ribulose by itself, 4 hours): 4.4% | reduction in cell death (GCL1 cells; 10 mM ribulose alone, 4 hours): 26.5%
